Test results: patent US5519018A, “Substituted phenols and their use for the treatment of disorders caused by cell proliferation” (Behringwerke Aktiengesellschaft, priority 1992, dated 1996)
Like-named read-outs stand apart in the source and are kept apart here.

Columns and labels:
hela cells = test: Test for inhibition of EGF-stimulated proliferation of tumor cells (hela, MTT); type: cell-based; conditions: 65 h; for inhibition at 5 µg/mL / inhibition at 25 µg/mL / inhibition at 1 µg/mL / inhibition at 0.2 µg/mL: Homo sapiens; for inhibition at 5 µg/mL: read-out: EGF stimulation % inhibition at 5 μg/ml; for inhibition at 25 µg/mL: read-out: EGF stimulation % inhibition at 25 μg/ml; for inhibition at 1 µg/mL: read-out: EGF stimulation % inhibition at 1 μg/ml; for inhibition at 0.2 µg/mL: read-out: EGF stimulation % inhibition at 0.2 μg/ml
Experimental: Test for inhibition of EGF- or bFGF-stimulated proliferation of tumor cells
2×10^3 hela cells per well were inoculated into a 96-well microtiter plate (in RPMI+1% FCS ). After 24 h, the medium was changed to RPMI+0.5% FCS and various concentrations of the test substance±EGF (0.1 nM)/bFGF (1 ng/ml) were added. Each group consisted of 4 wells; the control was only incubated±growth factor. After 65 h, 50 μof MTT (2.5 mg/ml in PBS) were added and the supernatant was removed after 7 h. The colored substance formed by the living cells was dissolved by addition of 100 μl of DMSO/well. The absorption was measured at 492 nm for each well with the aid of a 340 CC Multiscan photometer (Flow).
The mean value is formed from the 4 wells of a group and the absorption difference between the controls± growth factor (A) and between the groups with test substance± growth factor (B) is determined.

[1] = target: T1, EGF receptor tyrosine kinase (EGFRTK) (Homo sapiens, UniProt P00533); test: biochemical
T1 construct: This cell line expresses a large number of EGF receptors which have tyrosine kinase activity on the cell surface; endogenous in cells; host or cells: A 431 (ATCC CRL 1555), membrane preparation
T1 sequence (P00533 25-1210): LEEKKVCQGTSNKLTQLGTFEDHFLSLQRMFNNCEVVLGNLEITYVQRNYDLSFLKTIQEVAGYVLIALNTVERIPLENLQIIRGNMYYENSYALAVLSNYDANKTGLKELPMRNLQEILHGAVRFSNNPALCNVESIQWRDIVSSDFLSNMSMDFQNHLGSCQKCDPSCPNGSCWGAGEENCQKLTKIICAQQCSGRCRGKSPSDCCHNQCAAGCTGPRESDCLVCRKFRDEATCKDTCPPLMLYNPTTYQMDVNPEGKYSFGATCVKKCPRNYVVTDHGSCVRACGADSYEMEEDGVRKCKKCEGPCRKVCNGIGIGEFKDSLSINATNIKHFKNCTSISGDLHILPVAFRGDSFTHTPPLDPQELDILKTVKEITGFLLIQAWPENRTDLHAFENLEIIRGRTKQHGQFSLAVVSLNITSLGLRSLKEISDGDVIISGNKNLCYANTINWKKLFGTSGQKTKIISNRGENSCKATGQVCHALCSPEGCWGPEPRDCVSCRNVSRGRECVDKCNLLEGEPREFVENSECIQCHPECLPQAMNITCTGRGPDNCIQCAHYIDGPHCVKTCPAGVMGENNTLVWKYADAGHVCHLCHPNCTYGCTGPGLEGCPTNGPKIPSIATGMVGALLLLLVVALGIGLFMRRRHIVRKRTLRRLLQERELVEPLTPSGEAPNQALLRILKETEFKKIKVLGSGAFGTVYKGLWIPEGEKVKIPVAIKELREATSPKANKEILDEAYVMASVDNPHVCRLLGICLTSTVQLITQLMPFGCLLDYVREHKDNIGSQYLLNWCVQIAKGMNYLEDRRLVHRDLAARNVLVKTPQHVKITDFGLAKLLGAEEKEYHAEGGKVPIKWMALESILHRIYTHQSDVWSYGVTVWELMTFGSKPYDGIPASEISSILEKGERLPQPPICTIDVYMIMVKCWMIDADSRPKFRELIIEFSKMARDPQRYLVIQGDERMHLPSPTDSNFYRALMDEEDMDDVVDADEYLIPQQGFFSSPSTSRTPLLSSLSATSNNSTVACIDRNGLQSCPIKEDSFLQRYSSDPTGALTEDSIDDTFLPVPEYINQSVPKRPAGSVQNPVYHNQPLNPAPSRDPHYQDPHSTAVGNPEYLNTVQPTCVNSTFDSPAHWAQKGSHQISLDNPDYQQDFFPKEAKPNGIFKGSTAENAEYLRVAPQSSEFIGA
Experimental: Test for EGF receptor tyrosine kinase inhibition
This cell line expresses a large number of EGF receptors which have tyrosine kinase activity on the cell surface. The cells were cultured almost to confluence, washed with PBS (phosphate buffered saline, pH 7.2), scraped off the culture flask and incubated at 4° C. for 1 h, subjected to 20 strokes in a Potter and centrifuged at 1000 g for 30'. The supernatant was centrifuged at 20000 g for a further 20 min and the pellet was taken up in 100 μl per 1×10^6 cells as the membrane preparation.
The tyrosine kinase activity of the EGF receptor (EGFRTK) was measured using poly(Glu, Ala, Tyr), 6:3:1, as the substrate. […] After 15'at 30° C., the substrate was precipitated with 10% TCA (trichloroacetic acid), filtered on a millititer filtration plate (Millipore Corporation, Massachusetts, USA), washed and dried. The incorporation of ^32 P was determined by means of a liquid scintillation counter.

[2] = test system: cAMP-dependent protein kinase (PKA); test: Test for 3',5'-cAMP-dependent protein kinase inhibition (PKA catalytic subunit, Kemptide substrate); type: biochemical; conditions: 40 μM ATP, 15' at 30° C.
Experimental: Test for 3',5'-cAMP-dependent protein kinase inhibition
The catalytic subunit of the cAMP-dependent protein kinase (PKA) (Sigma) was reconstituted as described by Sigma (Sigma Chemical Co., St. Louis, Mo. USA). The enzyme activity was measured using Kemptide (Sigma) (Leu-Arg-Arg-Ala-Ser-Leu-Gly) as a substrate. […] The reaction was initiated by addition of gamma-^32 P ATP (40 μM) After 15'at 30° C., an aliquot part was added to p81 ion exchanger (2×2 cm; Whatman Paper Ltd., Great Britain), immersed in 75 mM H3 PO4, washed, dried, and the incorporation of ^32 P was determined by means of a liquid scintillation counter.

[3] = A 431 membranes, 1000 nM EGF, 32 μM ATP, 15' at 30° C., max. 51 μg/ml, read-out: EGFRTK IC50 (converted)
[4] = 5 μg/ml, hela cells, EGF 0.1 nM, tox = toxic
[5] = 1 μg/ml, hela cells, EGF 0.1 nM, tox = toxic
[6] = 25 μg/ml, hela cells, EGF 0.1 nM, tox = toxic

Structure (SMILES) | IC50 [1, 3] | PKA % inhib. at 40 μg/ml [2] | EGF stimulation % inhibition at 25 μg/ml (hela cells; [6]) | inhibition at 5 µg/mL (hela cells; [4]) | further results
O=S(=O)([O-])c1cc(O)ccc1O.[K+] | 8.06 µM | 1% |  |  | inhibition at 5 µg/mL (hela cells; HeLa): 6%; inhibition at 25 µg/mL (hela cells; HeLa): 14%
O=C1C=CC(=O)c2cc3ccccc3cc21 [1,4-Anthraquinone] | 2.79 µM |  |  |  | EGF stimulation % inhibition at 5 μg/ml (hela cells; [4]): tox; inhibition at 1 µg/mL (hela cells; [5]): 33%
Oc1ccccc1O [Pyrocatechol] |  | 0% |  |  | inhibition at 0.2 µg/mL (hela cells; HeLa): 16%; inhibition at 1 µg/mL (hela cells; HeLa): 35%; IC50 [1]: 14.5 µM
O=C1C=CC(=O)C(Cl)=C1 [2-Chlorobenzoquinone] |  | 29% | tox |  | inhibition at 5 µg/mL (hela cells; HeLa): 29%; IC50 [1]: 9.68 µM
Oc1ccc(O)cc1 [Hydroquinone] | 0.908 µM |  |  |  | inhibition at 1 µg/mL (hela cells; HeLa): 29%; inhibition at 5 µg/mL (hela cells; HeLa): 43%
CCN=Cc1cc(O)ccc1O [Ex. 7, N-Ethyl-2,5-hydroxybenzaldimine] | 74.2 µM | 0% | tox | 28% | 
O=Cc1cc(O)ccc1O [Gentisaldehyde] | 145 to 217 µM |  |  | 16% | inhibition at 1 µg/mL (hela cells; [5]): 0%
O=C1C=CC(=O)C=C1 [Benzoquinone] |  | 45% |  | 55% | inhibition at 1 µg/mL (hela cells; [5]): 36%; IC50 [1]: 0.463 µM
Oc1ccc(O)c(C=NN2CCOCC2)c1 [Ex. 11, 2,5-Dihydroxy-N-morpholinobenzaldimine] | 12.5 µM | 0% | tox | 17% | 
Oc1ccc(N=Cc2cc(O)ccc2O)cc1 [2,5-Dihydroxy-N-(4'-hydroxyphenyl)benzaldimine] | 55.1 µM |  | tox | 39% | 
Oc1ccc(O)c(C=NN2CCCCCC2)c1 [N-Homopiperidino-2,5-dihydroxybenzaldimine] | 17.4 µM | 0% |  |  | EGF stimulation % inhibition at 5 μg/ml (hela cells; [4]): tox
Oc1ccc(O)c(-c2ccccc2)c1 [2-Phenylhydroquinone] | 5.53 µM | 25% |  | 66% | inhibition at 1 µg/mL (hela cells; [5]): 11%
CCCCCCN=Cc1cc(O)ccc1O [Ex. 6, N-Hexyl-2,5-dihydroxybenzaldimine] | 95.6 µM | 0% | tox | 18% | 
CN=Cc1cc(O)ccc1O [Ex. 2, 2,5-Dihydroxy-N-methylbenzaldimine] | 13.1 µM | 0% | tox | 21% | 
CN(C)N=Cc1cc(O)ccc1O [Ex. 4, 2,5-Dihydroxy-N,N-dimethylbenzaldehyde hydrazone] | 7.66 µM | 63% | tox | 46% | 
O=C(O)c1cccc(N=Cc2cc(O)ccc2O)c1 [3-[-(2',5'-Dihydroxybenzylidene)amino]benzoic acid] | 77.9 µM | 0% | tox | 44% | 
Cc1c(O)ccc(O)c1C [2,3-Dimethylhydroquinone] | 4.64 µM | 71% | tox | 17% | 
CN1CCN(N=Cc2cc(O)ccc2O)CC1 [Ex. 12, 2,5-Dihydroxy-N-(4'-methylpiperazino)benzaldimine] | 2.38 µM | 0% | tox | 21% | 
Oc1ccc(O)c(C=NC2CCCCC2)c1 [N-Cyclohexyl-2,5-dihydroxybenzaldimine] | 44.7 µM | 61% |  | 39% | inhibition at 25 µg/mL (hela cells; [6]): 64%
O=C(O)c1cc(N=Cc2cc(O)ccc2O)ccc1O [5-[N-(2',5'-Dihydroxybenzylidene)amino]-2-hydroxybenzoic acid] | 27.3 µM | 0% | tox | 51% | 
O=C1C=CC(=O)C=C1.Oc1ccc(O)cc1 [Quinhydrone] |  | 0% |  |  | EGF stimulation % inhibition at 1 μg/ml (hela cells; [5]): 12%; EGF stimulation % inhibition at 5 μg/ml (hela cells; [4]): 64%; EGFRTK IC50 ([1]; A 431 membranes, 1000 nM EGF, 32 μM ATP, 15' at 30° C., max. 51 μg/ml): 0.126 µg/mL
Oc1ccc(O)c2ccccc12 [1,4-Naphthodiol] |  | 76% |  |  | EGF stimulation % inhibition at 1 μg/ml (hela cells; [5]): tox; inhibition at 0.2 µg/mL (hela cells; HeLa): 29%; IC50 [1]: 9.36 µM
O=C(O)c1ccc(N=Cc2cc(O)ccc2O)cc1 [Ex. 1, 4-[N-(2',5'-Dihydroxybenzylidene)amino]benzoic acid] | 67.5 µM | 0% | tox | 48% | 
Cc1cc(O)c2ccccc2c1O [Menadiol] | 150 µM | 0% |  |  | 
CC(C)N=Cc1cc(O)ccc1O [Ex. 8, 2,5-Dihydroxy-N-isopropylbenzaldimine] | 46.3 µM | 0% | tox | 28% | 
O=C1C=CC(=O)c2ccccc21 [Naphthoquinone] |  |  |  |  | inhibition at 0.2 µg/mL (hela cells; 0.2 μg/ml, hela cells, EGF 0.1 nM): 11%; IC50 [1]: 1.26 µM
Oc1ccc(O)c(C=NN2CCCCC2)c1 [Ex. 10, 2,5-Dihydroxy-N-piperidinobenzaldimine] | 47.7 µM | 0% |  |  | 
Oc1ccc(O)c(C=Nc2ccccc2)c1 [2,5-Dihydroxy-N-phenylbenzaldimine] | 89.3 µM |  | tox | 24% | 
